From patent US20220332699A1 (SAGE THERAPEUTICS, INC., priority 2019, published 2022)

Molecular target: CYP46A1 (Homo sapiens, UniProt Q9Y6A2)
Test: CYP46A1 Enzyme Assay 2 (testosterone substrate, HPLC-MS)
Assay type: biochemical
Settings: read-out: IC50 (CYP46A1 inhibitory activity)
Description: Briefly, in a 384-well plate format, 10 μL per well of an enzyme-substrate mixture of CYP46A1 (5 μM final concentration) and Testosterone ([…] final concentration) were dispensed to wells containing test compound. For CYP46A1 titration, 5 μL per well of serially diluted CYP46A1 (concentrations including 10 μM, 5 μM, and 2.5 μM) and Testosterone (concentration of […]) were dispensed. For Testosterone titration, 5 μL per well of serially diluted Testosterone (concentrations including 10 μM, 5 μM, and 2.5 μM) and CYP46A1 (concentration of 5 μM) were dispensed. The plates were centrifuged at 1000 rpm for 30 seconds, and then sealed and incubated at 37° C. for 30 minutes. The plate was removed from the incubator, and then 10 μL per well of NADPH-generating system were dispensed to initiate the reaction. The plates were incubated at 37° C. for 15 minutes, added with 80 μL per well of 100% methanol consisting 1 ng/ml diclofenac as internal standard, and then transferred for HPLC-MS.

CYP46A1, sequence (Q9Y6A2 whole entry): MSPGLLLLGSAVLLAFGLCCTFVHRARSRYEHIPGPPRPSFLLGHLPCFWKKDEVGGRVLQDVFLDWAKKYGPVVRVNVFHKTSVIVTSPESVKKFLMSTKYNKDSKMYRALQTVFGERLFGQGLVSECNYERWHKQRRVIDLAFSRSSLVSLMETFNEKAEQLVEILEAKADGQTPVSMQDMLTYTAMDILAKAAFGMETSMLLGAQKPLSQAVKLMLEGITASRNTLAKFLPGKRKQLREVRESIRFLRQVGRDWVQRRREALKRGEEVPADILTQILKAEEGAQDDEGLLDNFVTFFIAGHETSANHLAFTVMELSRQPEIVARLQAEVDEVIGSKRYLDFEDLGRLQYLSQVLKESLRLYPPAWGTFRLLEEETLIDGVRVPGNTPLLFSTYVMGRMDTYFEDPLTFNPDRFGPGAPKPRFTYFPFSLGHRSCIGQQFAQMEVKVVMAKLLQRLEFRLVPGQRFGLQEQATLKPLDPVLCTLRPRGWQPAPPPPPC

IC50 [µM]	Compound
< 0.1	CC[C@H](c1ccc(F)cc1)C1(C#N)CCN(C(=O)c2cccnc2-c2ccncn2)CC1 [Compound A215, (R)-4-(1-(4-fluorophenyl)propyl)-1-(2-(pyrimidin-4-yl)nicotinoyl)piperidine-4-carbonitrile]
< 0.1	C[C@@H](c1ccc(F)cc1F)C1(C#N)CCN(C(=O)c2cccnc2-c2ccncn2)CC1 [Compound A242, (R)-4-(1-(2,4-difluorophenyl)ethyl)-1-(2-(pyrimidin-4-yl)nicotinoyl)piperidine-4-carbonitrile]
< 0.1	N#CC1(Cc2c(F)cccc2F)CCN(C(=O)c2cccnc2-c2ccncc2)CC1 [Compound A274, 1-([2,4′-bipyridine]-3-carbonyl)-4-(2,6-difluorobenzyl)piperidine-4-carbonitrile]
< 0.1	N#CC1(Cc2ccc(F)c(F)c2)CCN(C(=O)c2cccnc2-c2ccncn2)CC1 [Compound A206, 4-(3,4-difluorobenzyl)-1-(2-(pyrimidin-4-yl)nicotinoyl)piperidine-4-carbonitrile]
< 0.1	N#CC1(Cc2ccc(Cl)cc2C2CC2)CCN(C(=O)c2cccnc2-c2ccncn2)CC1 [Compound A231, 4-(4-chloro-2-cyclopropylbenzyl)-1-(2-(pyrimidin-4-yl)nicotinoyl)piperidine-4-carbonitrile]
< 0.1	CC(c1ccc(C(F)(F)F)cc1)C1(C#N)CCN(C(=O)c2cccnc2-c2ccncc2)CC1 (stereo in doubt) [Compound A269, (S)-1-([2,4′-bipyridine]-3-carbonyl)-4-(1-(4-(trifluoromethyl)phenyl)ethyl)piperidine-4-carbonitrile]
0.1 to 1	N#CC1(Cc2ccncc2)CCN(C(=O)c2cccnc2-c2ccncc2)CC1 [Compound A65, 1-([2,4′-Bipyridine]-3-carbonyl)-4-(pyridin-4-ylmethyl)piperidine-4-carbonitrile]
> 1	N#CC1(Cc2ccc(F)cc2)CCN(C(=O)c2cccnc2-c2ncncc2F)CC1 [Compound A233, 4-(4-fluorobenzyl)-1-(2-(5-fluoropyrimidin-4-yl)nicotinoyl)piperidine-4-carbonitrile]
< 0.1	N#CC1(CCCc2ccccc2)CCN(C(=O)c2cccnc2-c2ccncc2)CC1 [Compound A71, 1-{[2,4′-bipyridine]-3-carbonyl}-4-(3-phenylpropyl)piperidine-4-carbonitrile]
< 0.1	N#CC1(Cc2ccc(C3CC3)nc2)CCN(C(=O)c2cccnc2-c2ccncn2)CC1 [Compound A211, 4-((6-cyclopropylpyridin-3-yl)methyl)-1-(2-(pyrimidin-4-yl)nicotinoyl)piperidine-4-carbonitrile]
< 0.1	COc1ccc(CC2(C#N)CCN(C(=O)c3cccnc3-c3ccncn3)CC2)cn1 [Compound A202, 4-((6-methoxypyridin-3-yl)methyl)-1-(2-(pyrimidin-4-yl)nicotinoyl)piperidine-4-carbonitrile]
< 0.1	N#CC1(Cc2ccc(C3CC3)cc2)CCN(C(=O)c2cccnc2-c2ccncn2)CC1 [Compound A212, 4-(4-cyclopropylbenzyl)-1-(2-(pyrimidin-4-yl)nicotinoyl)piperidine-4-carbonitrile]
< 0.1	N#CC1(Cc2ccc(F)cc2F)CCN(C(=O)c2cccnc2-c2ccncc2)CC1 [Compound A284, 1-([2,4′-bipyridine]-3-carbonyl)-4-(2,4-difluorobenzyl)piperidine-4-carbonitrile]
< 0.1	N#CC1(Cc2ccc(C(F)(F)F)cc2F)CCN(C(=O)c2cccnc2-c2ccncn2)CC1 [Compound A240, 4-(2-fluoro-4-(trifluoromethyl)benzyl)-1-(2-(pyrimidin-4-yl)nicotinoyl)piperidine-4-carbonitrile]

Continued, compound first:

Compound	IC50 [µM]
Cc1ccc(C(=O)N2CCC(C#N)(Cc3ccc(F)cc3)CC2)c(-c2ccncn2)n1 [Compound A249, 4-(4-fluorobenzyl)-1-(6-methyl-2-(pyrimidin-4-yl)nicotinoyl)piperidine-4-carbonitrile]	> 1
N#CC1(Cc2ccc(F)cc2)CCN(C(=O)c2cccnc2-c2cnco2)CC1 [Compound A56, 4-(4-fluorobenzyl)-1-(2-(oxazol-5-yl)nicotinoyl)piperidine-4-carbonitrile]	0.1 to 1
C[C@@H](c1c(F)cccc1F)C1(C#N)CCN(C(=O)c2cccnc2-c2ccncn2)CC1 [Compound A244, (R)-4-(1-(2,6-difluorophenyl)ethyl)-1-(2-(pyrimidin-4-yl)nicotinoyl)piperidine-4-carbonitrile]	< 0.1
N#CC1(Cc2ccccc2Cl)CCN(C(=O)c2cccnc2-c2ccncc2)CC1 [Compound A21, 1-([2,4′-bipyridine]-3-carbonyl)-4-(2-chlorobenzyl)piperidine-4-carbonitrile]	< 0.1
N#C[C@@]1(Cc2ccc(F)cc2)C[C@H]2CC[C@@H](C1)N2C(=O)c1cccnc1-c1ccncn1 [Compound A252, (1R,3r,5S)-3-(4-fluorobenzyl)-8-(2-(pyrimidin-4-yl)nicotinoyl)-8-azabicyclo[3.2.1]octane-3-carbonitrile]	0.1 to 1
N#CC1(Cc2ccc(F)cc2C2CC2)CCN(C(=O)c2cccnc2-c2ccncn2)CC1 [Compound A230, 4-(2-cyclopropyl-4-fluorobenzyl)-1-(2-(pyrimidin-4-yl)nicotinoyl)piperidine-4-carbonitrile]	< 0.1
N#CC1(Cc2ccc(F)cc2)CCN(C(=O)c2cccnc2-c2ccnnc2)CC1 [Compound A200, 4-(4-fluorobenzyl)-1-(2-(pyridazin-4-yl)nicotinoyl)piperidine-4-carbonitrile]	> 1
N#CC1(Cc2ccc(F)cc2)CCN(C(=O)c2ccc(F)cc2-c2ccncn2)CC1 [Compound A220, 1-(4-fluoro-2-(pyrimidin-4-yl)benzoyl)-4-(4-fluorobenzyl)piperidine-4-carbonitrile]	< 0.1
CC(c1ccc(C(F)(F)F)cc1)C1(C#N)CCN(C(=O)c2cccnc2-c2ccncc2)CC1 (stereo in doubt) [Compound A268, (R)-1-([2,4′-bipyridine]-3-carbonyl)-4-(1-(4-(trifluoromethyl)phenyl)ethyl)piperidine-4-carbonitrile]	< 0.1
N#CC1(Cc2cccc(Cl)c2)CCN(C(=O)c2cccnc2-c2ccncc2)CC1 [Compound A22]	< 0.1
N#CC1(Cc2cccc(C(F)(F)F)c2F)CCN(C(=O)c2cccnc2-c2ccncn2)CC1 [Compound A265, 4-(2-fluoro-3-(trifluoromethyl)benzyl)-1-(2-(pyrimidin-4-yl)nicotinoyl)piperidine-4-carbonitrile]	< 0.1
N#CC1(Cc2ccc(F)cc2)CCN(C(=O)c2ccccc2-c2ccncn2)CC1 [Compound A229, 4-(4-fluorobenzyl)-1-(2-(pyrimidin-4-yl)benzoyl)piperidine-4-carbonitrile]	< 0.1
N#CC1(Cc2c(F)cc(F)cc2F)CCN(C(=O)c2cccnc2-c2ccncn2)CC1 [Compound A263, 1-(2-(pyrimidin-4-yl)nicotinoyl)-4-(2,4,6-trifluorobenzyl)piperidine-4-carbonitrile]	< 0.1
N#CC1(Cc2ccc(F)c(F)c2)CCN(C(=O)c2cccnc2-c2ccncc2)CC1 [Compound A69, 1-([2,4′-bipyridine]-3-carbonyl)-4-(3,4-difluorobenzyl)piperidine-4-carbonitrile]	< 0.1
N#CC1(Cc2ccc(F)cc2C(F)(F)F)CCN(C(=O)c2cccnc2-c2ccncn2)CC1 [Compound A276, 4-(4-fluoro-2-(trifluoromethyl)benzyl)-1-(2-(pyrimidin-4-yl)nicotinoyl)piperidine-4-carbonitrile]	0.1 to 1
N#CC1(Cc2c(F)cccc2F)CCN(C(=O)c2cccnc2-c2ccncn2)CC1 [Compound A207, 4-(2,6-difluorobenzyl)-1-(2-(pyrimidin-4-yl)nicotinoyl)piperidine-4-carbonitrile]	< 0.1
CC(c1cc(F)cc(F)c1)C1(C#N)CCN(C(=O)c2cccnc2-c2ccncc2)CC1 (stereo in doubt) [Compound A259, (S)-1-([2,4′-bipyridine]-3-carbonyl)-4-(1-(3,5-difluorophenyl)ethyl)piperidine-4-carbonitrile]	< 0.1
N#Cc1ccc(CC2(C#N)CCN(C(=O)c3cccnc3-c3ccncc3)CC2)cc1 [Compound A27, 1-([2,4′-bipyridine]-3-carbonyl)-4-(4-cyanobenzyl)piperidine-4-carbonitrile]	< 0.1
C[C@@H](c1ccc(C(F)(F)F)cc1F)C1(C#N)CCN(C(=O)c2cccnc2-c2ccncn2)CC1 [Compound A286, (R)-4-(1-(2-fluoro-4-(trifluoromethyl)phenyl)ethyl)-1-(2-(pyrimidin-4-yl)nicotinoyl)piperidine-4-carbonitrile]	< 0.1
N#CC1(Cc2c(F)cc(C(F)(F)F)cc2F)CCN(C(=O)c2cccnc2-c2ccncc2)CC1 [Compound A280, 1-([2,4′-bipyridine]-3-carbonyl)-4-(2,6-difluoro-4-(trifluoromethyl)benzyl)piperidine-4-carbonitrile]	< 0.1
C[C@@H](c1ccc(F)cc1)C1(C#N)CCN(C(=O)c2cccnc2-c2ccncn2)CC1 [Compound A44, (S)-4-(1-(4-fluorophenyl)ethyl)-1-(2-(pyrimidin-4-yl)nicotinoyl)piperidine-4-carbonitrile]	< 0.1
N#CC1(Cc2ccc(Cl)cc2Br)CCN(C(=O)c2cccnc2-c2ccncn2)CC1 [Compound A232, 4-(2-bromo-4-chlorobenzyl)-1-(2-(pyrimidin-4-yl)nicotinoyl)piperidine-4-carbonitrile]	< 0.1
